Measurements published in patent US11221326B2 (TOPPAN PRINTING CO., LTD., priority 2016, dated 2022).

Test system: human lung cancer cell line NCI-H1975
Assay: Drug sensitivity by viable count analysis (CNT %), NCI-H1975 cells cultured with exosomes (Example 3)
Assay type: cell-based
Conditions: Gefitinib 10 μM, 72 hours
Protocol: As a cell culture vessel, a Transwell cell culture insert (#3470 manufactured by Corning Incorporated) was used. The culture medium used was D-MEM (043-30085 manufactured by Wako Pure Chemical Corporation) containing 10 vol/vol % of bovine serum (EXO-FBS-50A-1 manufactured by System Biosciences, LLC), and 1 vol/vol % of penicillin-streptomycin (168-23191 manufactured by Wako Pure Chemical Corporation).
Drugs were each assessed three times using a final concentration of 10 μM of Gefitinib.
As exosomes derived from drug resistant cell line, ones recovered from the culture supernatant of human lung cancer cell line A549 (ATCC No.: CCL-185)) by ultracentrifugation were used. Assessments were conducted with respect to two conditions of 0 exosomes (no addition of the exosomes derived from the drug resistant cell line), and 1×10^9 exosomes.
In viable count analysis, drug sensitivity was assessed, as in Example 1, by using a trypan blue solution and by counting cells in the fluorescence mode of a cell counter (Countess II) manufactured by Life Technologies Inc. In the drug sensitivity assessment,CNT(cell viability)%=(viable count with addition of drug)/(viable count with addition of no drug)×100(%) was used as an assessment value.
As a reference, cells with an addition of 1×10^9 exosomes derived from the serum of a healthy person were also assessed.
(1) 2×10^4 NCI-H1975 cells were seeded in a Transwell cell culture insert.
(2) An appropriate amount of culture medium was added to the Transwell cell culture insert, followed by culturing in a CO2 incubator (37° C., 5% CO2) for 24 hours.
(1) An appropriate amount of culture medium was mixed with exosomes to prepare exosome medium solutions containing 0 exosomes (no addition of exosomes derived from a drug resistant cell line) and 1×10^9 exosomes.
(2) Each solution was added to the Transwell cell culture insert, followed by culturing in a CO2 incubator (37° C., 5% CO2) for 24 hours.
(1) An appropriate amount of the culture medium was mixed with a drug so as to have a final concentration of […]. […]

Question: Which results are given for `COc1cc2ncnc(Nc3ccc(F)c(Cl)c3)c2cc1OCCCN1CCOCC1` [Gefitinib]?
Answer: CNT (%) Average value (0 exosomes): 59.9%; CNT (%) Average value (1 × 10^9 exosomes derived from A549): 89.2%; CNT (%) Average value (1 × 10^9 exosomes derived from serum of healthy person): 57.7%
